Results reported in EP2929883A1, “Pyrazole derivatives as dihydroorotate dehydrogenase (DHODH) inhibitors” (INSTITUT PASTEUR, priority 2014, dated 2015).
≈ marks a conversion by molar mass, not a printed value.

The compounds below were run on measles virus (assay: microbe, parasite or virus in culture). Conditions: Measles morbillivirus, 24 h.

Row | SMILES | MIC50
1 | Cc1c(Oc2cc(F)ccc2F)c(OC(C)C)nn1-c1ccc(C2CC2)cn1 [example 18, 5-cyclopropyl-2-(4-(2,5-difluorophenoxy)-3-isopropoxy-5-methyl-1H-pyrazol-1-yl)pyridine] | 0.0005 to 0.05 µM (≈ 0.000193 to 0.0193 µg/mL)
2 | CCc1cnc(-n2nc(OC(C)C)c(Oc3cc(F)ccc3F)c2C)nc1 [example 19, 2-(4-(2,5-difluorophenoxy)-3-isopropoxy-5-methyl-1H-pyrazol-1-yl)-5-ethylpyrimidine] | 0.0005 to 0.05 µM (≈ 0.000187 to 0.0187 µg/mL)
3 | Cc1c(Cc2ccccc2)c(OC(C)C)nn1-c1ncc(C2CC2)cn1 [example 21, 2-(4-benzyl-3-isopropoxy-5-methyl-1H-pyrazol-1-yl)-5-cyclopropylpyrimidine] | 0.0005 to 0.05 µM (≈ 0.000174 to 0.0174 µg/mL)
4 | Cc1nn(-c2ncc(C3CC3)cn2)c(OC(C)C)c1Cc1ccccc1 [example 22, 2-(4-benzyl-5-isopropoxy-3-methyl-1H-pyrazol-1-yl)-5-cyclopropylpyrimidine] | 0.05 to 0.5 µM (≈ 0.0174 to 0.174 µg/mL)
5 | CCc1cnc(-n2nc(OC(C)C)c(Cc3ccccc3F)c2C)nc1 [example 23, 5-ethyl-2-(4-(2-fluorobenzyl)-3-isopropoxy-5-methyl-1H-pyrazol-1-yl)pyrimidine] | 0.0005 to 0.05 µM (≈ 0.000177 to 0.0177 µg/mL)
6 | CCc1cnc(-n2nc(OC(C)C)c(Cc3ccc(F)cc3)c2C)nc1 [example 24, 5-ethyl-2-(4-(4-fluorobenzyl)-3-isopropoxy-5-methyl-1H-pyrazol-1-yl)pyrimidine] | 0.0005 to 0.05 µM (≈ 0.000177 to 0.0177 µg/mL)
7 | CCOc1nn(-c2ncc(CC)cn2)c(C)c1Cc1ccccc1 [example 25, 2-(4-benzyl-3-ethoxy-5-methyl-1H-pyrazol-1-yl)-5-ethylpyrimidine] | 0.0005 to 0.05 µM (≈ 0.000161 to 0.0161 µg/mL)
8 | CCOc1c(Cc2ccccc2)c(C)nn1-c1ncc(CC)cn1 [example 26, 2-(4-benzyl-5-ethoxy-3-methyl-1H-pyrazol-1-yl)-5-ethylpyrimidine] | 0.5 to 5 µM (≈ 0.161 to 1.61 µg/mL)
9 | CCCc1cnc(-n2nc(OCC)c(Cc3ccccc3)c2C)nc1 [example 27, 2-(4-benzyl-3-ethoxy-5-methyl-1H-pyrazol-1-yl)-5-propylpyrimidine] | 0.0005 to 0.05 µM (≈ 0.000168 to 0.0168 µg/mL)
10 | CCCCCc1cnc(-n2nc(OCC)c(Cc3ccccc3)c2C)nc1 [example 28, 2-(4-benzyl-3-ethoxy-5-methyl-1H-pyrazol-1-yl)-5-pentylpyrimidine] | > 5 µM
11 | CCOc1nn(-c2ncc(C3CC3)cn2)c(C)c1Cc1ccccc1 [example 29, 2-(4-benzyl-3-ethoxy-5-methyl-1H-pyrazol-1-yl)-5-cyclopropylpyrimidine] | 0.0005 to 0.05 µM (≈ 0.000167 to 0.0167 µg/mL)
12 | CCOc1nn(-c2ccccn2)c(C)c1Cc1ccccc1 [example 30, 2-(4-benzyl-3-ethoxy-5-methyl-1H-pyrazol-1-yl)pyridine] | > 5 µM
13 | CCOc1nn(-c2ccc(C)cn2)c(C)c1Cc1ccccc1 [example 31, 2-(4-benzyl-3-ethoxy-5-methyl-1H-pyrazol-1-yl)-5-methylpyridine] | 0.5 to 5 µM (≈ 0.154 to 1.54 µg/mL)
14 | CCOc1nn(-c2cc(C)ccn2)c(C)c1Cc1ccccc1 [example 32, 2-(4-benzyl-3-ethoxy-5-methyl-1H-pyrazol-1-yl)-4-methylpyridine] | 0.5 to 5 µM (≈ 0.154 to 1.54 µg/mL)
15 | CCOc1nn(-c2cccc(C)n2)c(C)c1Cc1ccccc1 [example 33, 2-(4-benzyl-3-ethoxy-5-methyl-1H-pyrazol-1-yl)-6-methylpyridine] | > 5 µM
16 | CCOc1nn(-c2ccc(C(C)(C)O)cn2)c(C)c1Cc1ccccc1 [example 34, 2-(6-(4-benzyl-3-ethoxy-5-methyl-1H-pyrazol-1-yl)pyridin-3-yl)propan-2-ol] | > 5 µM
17 | CCOc1nn(-c2ncc(C3CC3)cc2F)c(C)c1Cc1ccccc1 [example 35, 2-(4-benzyl-3-ethoxy-5-methyl-1H-pyrazol-1-yl)-5-cyclopropyl-3-fluoropyridine] | 0.05 to 0.5 µM (≈ 0.0176 to 0.176 µg/mL)
18 | CCOc1nn(-c2ncc(C3CC3)cc2C#N)c(C)c1Cc1ccccc1 [example 36, 2-(4-benzyl-3-ethoxy-5-methyl-1H-pyrazol-1-yl)-5-cyclopropylnicotinonitrile] | 0.05 to 0.5 µM (≈ 0.0179 to 0.179 µg/mL)
19 | CCOc1nn(-c2ncccc2F)c(C)c1Cc1ccccc1 [example 37, 2-(4-benzyl-3-ethoxy-5-methyl-1H-pyrazol-yl)-3-fluoropyridine] | > 5 µM
20 | CCOc1nn(-c2ccc(C(F)(F)F)cn2)c(C)c1Cc1ccccc1 [example 38, 2-(4-benzyl-3-ethoxy-5-methyl-1H-pyrazol-1-yl)-5-(trifluoromethyl)pyridine] | 0.5 to 5 µM (≈ 0.181 to 1.81 µg/mL)
21 | CCOc1nn(-c2ccc(Cl)cn2)c(C)c1Cc1ccccc1 [example 39, 2-(4-benzyl-3-ethoxy-5-methyl-1H-pyrazol-1-yl)-5-chloropyridine] | 0.5 to 5 µM (≈ 0.164 to 1.64 µg/mL)
22 | CCOc1nn(-c2ncc(Br)cc2F)c(C)c1Cc1ccccc1 [example 40, 2-(4-benzyl-3-ethoxy-5-methyl-1H-pyrazol-1-yl)-5-bromo-3-fluoropyridine] | 0.5 to 5 µM (≈ 0.195 to 1.95 µg/mL)
23 | CCOc1nn(-c2ccc(Br)cn2)c(C)c1Cc1ccccc1 [example 41, 2-(4-benzyl-3-ethoxy-5-methyl-1H-pyrazol-1-yl)-5-bromopyridine] | > 5 µM

Row | SMILES | MIC50
24 | CCOc1nn(-c2ncc(Br)cn2)c(C)c1Cc1ccccc1 [example 42, 2-(4-benzyl-3-ethoxy-5-methyl-1H-pyrazol-1-yl)-5-bromopyrimidine] | 0.05 to 0.5 µM (≈ 0.0187 to 0.187 µg/mL)
25 | CCOc1c(Cc2ccccc2)c(C)nn1-c1ncc(Br)cn1 [example 43, 2-(4-benzyl-5-ethoxy-3-methyl-1H-pyrazol-1-yl)-5-bromopyrimidine] | > 5 µM
26 | Cc1c(Cc2ccccc2)c(=O)n(-c2ncc(Br)cn2)n1-c1ncc(Br)cn1 [example 44, 4-benzyl-1,2-bis(5-bromopyrimidin-2-yl)-5-methyl-1H-pyrazol-3(2H)-one] | 0.5 to 5 µM (≈ 0.251 to 2.51 µg/mL)
27 | Cc1c(Oc2c(F)cccc2F)c(OC(C)C)nn1-c1cnc(C2CC2)cn1 [example 45, 2-cyclopropyl-5-(4-(2,6-difluorophenoxy)-3-isopropoxy-5-methyl-1H-pyrazol-1-yl)pyrazine] | 0.0005 to 0.05 µM (≈ 0.000193 to 0.0193 µg/mL)
28 | Cc1c(Oc2c(F)cccc2F)c(OC(C)C)nn1-c1ncc(C2CC2)cc1C#N [example 46, 5-cyclopropyl-2-(4-(2,6-difluorophenoxy)-3-isopropoxy-5-methyl-1H-pyrazol-1-yl)nicotinonitrile] | 0.0005 to 0.05 µM (≈ 0.000205 to 0.0205 µg/mL)
29 | Cc1cnc(-n2nc(OC(C)C)c(Oc3c(F)cccc3F)c2C)nc1 [example 47, 2-(4-(2,6-difluorophenoxy)-3-isopropoxy-5-methyl-1H-pyrazol-1-yl)-5-methylpyrimidine] | 0.0005 to 0.05 µM (≈ 0.00018 to 0.018 µg/mL)
30 | Cc1c(Oc2c(F)cccc2F)c(OC(C)C)nn1-c1cnc(Br)cn1 [example 48, 2-bromo-5-(4-(2,6-difluorophenoxy)-3-isopropoxy-5-methyl-1H-pyrazol-1-yl)pyrazine] | 0.5 to 5 µM (≈ 0.213 to 2.13 µg/mL)
31 | CCOc1nn(-c2ccc(C3CC3)cn2)c(C)c1Oc1cccc(Cl)c1Cl [example 49, 5-cyclopropyl-2-(4-(2,3-dichlorophenoxy)-3-ethoxy-5-methyl-1H-pyrazol-1-yl)pyridine] | 0.0005 to 0.05 µM (≈ 0.000202 to 0.0202 µg/mL)
32 | CCc1cnc(-n2nc(OC(C)C)c(Oc3ccccc3F)c2C)nc1 [example 50, 5-ethyl-2-(4-(2-fluorophenoxy)-3-isopropoxy-5-methyl-1H-pyrazol-1-yl)pyrimidine] | 0.0005 to 0.05 µM (≈ 0.000178 to 0.0178 µg/mL)
33 | Cc1c(Oc2ccccc2F)c(OC(C)C)nn1-c1ncc(C2CC2)cn1 [example 51, 5-cyclopropyl-2-(4-(2-fluorophenoxy)-3-isopropoxy-5-methyl-1H-pyrazol-1-yl)pyrimidine] | 0.0005 to 0.05 µM (≈ 0.000184 to 0.0184 µg/mL)
34 | Cc1c(Oc2ccccc2F)c(OC(C)C)nn1-c1ncc(C2CC2)cc1C#N [example 52, 5-cyclopropyl-2-(4-(2-fluorophenoxy)-3-isopropoxy-5-methyl-1H-pyrazol-1-yl)nicotinonitrile] | 0.05 to 0.5 µM (≈ 0.0196 to 0.196 µg/mL)
35 | Cc1c(Oc2ccccc2F)c(OC(C)C)nn1-c1ncc(C2CC2)cc1F [example 53, 5-cyclopropyl-3-fluoro-2-(4-(2-fluorophenoxy)-3-isopropoxy-5-methyl-1H-pyrazol-1-yl)pyridine] | 0.05 to 0.5 µM (≈ 0.0193 to 0.193 µg/mL)
36 | CCc1cnc(-n2nc(OC(C)C)c(Oc3cccc(F)c3)c2C)nc1 [example 54, 5-ethyl-2-(4-(3-fluorophenoxy)-3-isopropoxy-5-methyl-1H-pyrazol-1-yl)pyrimidine] | 0.05 to 0.5 µM (≈ 0.0178 to 0.178 µg/mL)
37 | CCOc1nn(-c2ccc(C3CC3)cn2)c(C)c1Oc1ccccc1Br [example 55, 2-(4-(2-bromophenoxy)-3-ethoxy-5-methyl-1H-pyrazol-1-yl)-5-cyclopropylpyridine] | 0.0005 to 0.05 µM (≈ 0.000207 to 0.0207 µg/mL)
38 | CCOc1nn(-c2ccc(C3CC3)cn2)c(C)c1Oc1ccccc1C(F)(F)F [example 56, 5-cyclopropyl-2-(3-ethoxy-5-methyl-4-(2-(trifluoromethyl)phenoxy)-1H-pyrazol-1-yl)pyridine] | 0.05 to 0.5 µM (≈ 0.0202 to 0.202 µg/mL)
39 | CCOc1nn(-c2ncc(CC)cn2)c(C)c1Oc1cccc(C(F)(F)F)c1 [example 57, 2-(3-ethoxy-5-methyl-4-(3-(trifluoromethyl)phenoxy)-1H-pyrazol-1-yl)-5-ethylpyrimidine] | 0.05 to 0.5 µM (≈ 0.0196 to 0.196 µg/mL)
40 | Cc1c(Oc2c(F)cccc2F)c(OC(C)C)nn1-c1ncc(Br)cn1 [example 58, 5-bromo-2-(4-(2,6-difluorophenoxy)-3-isopropoxy-5-methyl-1H-pyrazol-1-yl)pyrimidine] | 0.0005 to 0.05 µM (≈ 0.000213 to 0.0213 µg/mL)
41 | Cc1c(Oc2c(F)cccc2F)c(OC(C)C)nn1-c1ccc(Br)cn1 [example 59, 5-bromo-2-(4-(2,6-difluorophenoxy)-3-isopropoxy-5-methyl-1H-pyrazol-1-yl)pyridine] | 0.05 to 0.5 µM (≈ 0.0212 to 0.212 µg/mL)
42 | Cc1nn(-c2ccc(Br)cn2)c(OC(C)C)c1Oc1c(F)cccc1F [example 60, 5-bromo-2-(4-(2,6-difluorophenoxy)-5-isopropoxy-3-methyl-1H-pyrazol-1-yl)pyridine] | > 5 µM
43 | CCc1cnc(-n2nc(OC(C)C)c(Oc3ccc(F)cc3F)c2C)nc1 [example 61, 2-(4-(2,4-difluorophenoxy)-3-isopropoxy-5-methyl-1H-pyrazol-1-yl)-5-ethylpyrimidine] | 0.0005 to 0.05 µM (≈ 0.000187 to 0.0187 µg/mL)
44 | COc1cnc(-n2nc(OC(C)C)c(Oc3c(F)cccc3F)c2C)nc1 [example 62, 2-(4-(2,6-difluorophenoxy)-3-isopropoxy-5-methyl-1H-pyrazol-1-yl)-5-methoxypyrimidine] | 0.0005 to 0.05 µM (≈ 0.000188 to 0.0188 µg/mL)
45 | CCOc1nn(-c2ccc(C3CC3)cn2)c(C)c1Oc1ccccc1Cl [example 63, 2-(4-(2-chlorophenoxy)-3-ethoxy-5-methyl-1H-pyrazol-1-yl)-5-cyclopropylpyridine] | 0.0005 to 0.05 µM (≈ 0.000185 to 0.0185 µg/mL)
46 | CCOc1nn(-c2ncc(CC)cn2)c(C)c1Oc1cc(Cl)ccc1Cl [example 64, 2-(4-(2,5-dichlorophenoxy)-3-ethoxy-5-methyl-1H-pyrazol-1-yl)-5-ethylpyrimidine] | 0.0005 to 0.05 µM (≈ 0.000197 to 0.0197 µg/mL)
